Laboratory results reported in patent US20230355801A1, “IMMUNOTHERAPY OF SKIN CANCER USING MPLA-LOADED HPG NANOPARTICLES” (Yale University, priority 2022, published 2023).

Test system: dendritic cells in tumor draining lymph nodes
Assay: Maturation of dendritic cells in tumor draining lymph nodes of mice (Example 5)
Type: in vivo, mouse
Conditions: 24 hour after intratumoral injection, 10 μg MPLA
Procedure: Immunocompetent mice were injected with Yale University Mouse Melanoma Exposed to Radiation 1.7 (YUMMER1.7) cells for in vivo modeling of immunogenic, cutaneous melanoma. 300,000 cells of YUMMER 1.7 melanoma cells in 50 μL of sterile PBS were intradermally injected into the left flank of syngeneic C57Bl/6 mice.
The mice were watched for tumor growth for eight days until the mice were randomly divided into groups (n=10) based on tumor sizes between 40-90 mm^3. The mice received vehicle (10 μl distilled water), free MPLA (10 μg), NNP-MPLA (10 μg of active MPLA), and BNP-MPLA (10 μg of active MPLA) intratumorally. The mice were sacrificed either at 24 hours or 72 hours after the single intratumoral injection. The tumor draining lymph nodes, both axillary and inguinal, were collected from each mouse. A petri dish was used to collect the lymph nodes, and the frosted ends of microscope slides were used to gently release immune cells from the lymph nodes into fresh CRPMI and placed on ice until resuspension. […]
After lymph node single cell collection, the cells were rinsed with sterile PBS and plated into a 96 round-bottom well plate at a concentration density of 1-2×10^6 cells per well then rinsed again with PBS. […] The stained cells were then detected by flow cytometer (Cytoflex, Beckman Coulter). […]

monophosphoryl lipid A [free MPLA]
dendritic cell maturation (CD80+CD86+ in CD11c+ cells) in TDLN: significant increase
